{"source": "patent US20230263797A1", "about": "“Mammalian Hybrid Pre-Autophagosomal Structure HyPAS and Compositions and Methods for the Treatment of Coronavirus Infections and Related Disease States” (UNM Rainforest Innovations, priority 2021, published 2023)", "key": {"HyPAS formation": {"test_system": "HyPAS formation", "assay": "High content microscopy (HCM) quantification of HyPAS formation (overlap between FIP200 and FLAG-ATG16L1)", "assay_type": "cell-based, human", "method": "(§1) HCM was performed as described previously (Kumar et al., 2019). Cells were stimulated for autophagy by incubating in EBSS for 2 h followed by fixation with 4% paraformaldehyde for 5 mins. Cells were permeabilized with 0.1% saponin and blocked in 3% BSA for 30 mins followed by incubation with primary antibody for 6 h and secondary antibody for 1 h. High content microscopy with automated image acquisition and quantification was carried out using a Cellomics HCS scanner and iDEV software (Thermo) in 96-well plates (Kumar et al., 2019). For HCM experiments >500 primary objects were counted per well, minimum 6 wells were counted per experiments and data presented in figures are derived from at least 3 independent experiments.\nImmunofluorescence confocal microscopy was carried out as described previously (Kumar et al., 2019). Briefly, cells were plated onto coverslips in 6 well or 12-well plates. Transfected cells were incubated in full media or EBSS (Earle's Balanced Salt Solution) for 2 h and fixed in 4% paraformaldehyde for 10 min followed by permeabilization with 0.1% saponin in 3% BSA. Cells were blocked 3% BSA and then incubated with primary antibodies for 4 h. Cells were washed three times with PBS and then incubated with appropriate secondary antibodies (Invitrogen) for 1 h at room temperature. Coverslips were then mounted using ProLong Gold Antifade Mountant (Invitrogen) and analyzed by confocal microscopy using the Zeiss LSM510 Laser Scanning Microscope."}, "[1]": {"test_system": "LC3-ATG16L1 overlap in HeLa cells", "assay": "HCM colocalization between FLAG-ATG16L1 and LC3 (LAP-like noncanonical autophagy)", "assay_type": "cell-based, human", "conditions": "WT or STX17KO HeLa cells; monensin 100 μM for 1 h", "method": "as §1, with “Cells were stimulated for autophagy by incubating in EBSS for 2 h followed by fixation with 4% paraformaldehyde for 5 mins.” left out"}, "[2]": {"test_system": "HyPAS formation in vitro (GFP-FIP200 and mCherry-ATG16L1 membranes)", "assay": "In vitro fusion ivitHC assay between GFP-FIP200 and mCherry-ATG16L1 membranes", "assay_type": "biochemical", "conditions": "vesicles from cells induced for autophagy; BAPTA used at 20 μM", "method": "293A WT or SIGMAR1^KO cells were plated in 96 well plates and transfected with indicated Keima plasmids. Cells were incubated in full media or induced for autophagy by incubating with EBSS for 8 h. Cells were then incubated in full media and incubated with Hoechst 33342 for ten minutes in full media and then acquired for Keima fluorescence at 440 nm and 560 nm using the Cell Insight CX7 High-Content Screening (HCS) Platform (Thermo)(Kumar et al., 2019). In Vitro Fusion ivitHC Assay In vitro fusion assay was developed for HCM platform by modifying a previously described assay (Matsui et al., 2018a; Moreau et al., 2011). […]\nOne hypothesis that emerged from the above studies is that FIP200 and ATG16L1 represent two precursor membranes with STX17 facilitating heterotypic fusion between them early in autophagy. […] This method mixes vesicles from different cells expressing green (GFP-FIP200) and red (mCherry-ATG16L1) markers and after addition of an ATP and ATP-regenerating system vesicle fusion is monitored by fluorescence microscopy. We adapted this to permit HCM quantification allowing highly powered analyses and termed it IvitHC (in vitro fusion high content assay) (FIG. 2A). […]"}, "[3]": {"test_system": "STX17 and SERCA2 interactions", "assay": "Co-IP analysis of interactions of STX17 with SERCA2 in 293T cells", "assay_type": "cell-based", "conditions": "CQ treatment", "method": "(§2) Immunoblotting and co-immunoprecipitation (co-IP) were performed as described previously (Kumar et al., 2018). For co-IP, cells were transfected with 10 μg of plasmids, wherever stated, and lysed in NP-40 buffer containing protease inhibitor cocktail (Roche, cat #11697498001) and PMSF (Sigma, cat #93482). Lysates were mixed with 5 μg antibody and incubated at 4° C. for overnight followed by incubation with Dynabeads protein G (Life Technologies) for 4 h, at 4° C. Beads were washed three times with PBS and then boiled with SDS-PAGE buffer for analysis of interacting protein by immunoblotting."}, "[4]": {"test_system": "STX17 and E-SYT2 interactions", "assay": "Co-IP analysis of interactions of STX17 with E-SYT2 in 293T cells", "assay_type": "cell-based", "conditions": "CQ treatment", "method": "as §2"}}}
{"molecule": "CN(C)CCN(C)CCc1ccc(Cl)c(Cl)c1", "note": "[BD1047, BD-1047]", "values": [{"measurement": "HyPAS formation induced by starvation", "setting": "HyPAS formation; HeLa cells induced for autophagy (EBSS, 2 h), 10 μM for 1 h", "value": "inhibited"}]}
{"molecule": "CC(=O)OCOC(=O)CN(CC(=O)OCOC(C)=O)c1ccccc1OCCOc1ccccc1N(CC(=O)OCOC(C)=O)CC(=O)OCOC(C)=O", "note": "[BAPTA-AM]", "values": [{"measurement": "HyPAS formation", "setting": "HyPAS formation; STX17KO HeLa cells, starvation-induced autophagy, BAPTA-AM treatment", "value": "did not further affect"}, {"measurement": "HyPAS formation", "setting": "HyPAS formation; WT HeLa cells, starvation-induced autophagy (EBSS, 2 h), BAPTA-AM treatment", "value": "reduced"}]}
{"molecule": "COc1ccc(CCN2CCN(CCCc3ccccc3)CC2)cc1OC", "note": "[cutamesine]", "values": [{"measurement": "HyPAS formation", "setting": "HyPAS formation; cells grown in full medium, 100 nM for 2 h", "value": "induced"}]}
{"molecule": "CC[C@@]1([C@@H]2O[C@@H]([C@H]3O[C@@](O)(CO)[C@H](C)C[C@@H]3C)C[C@@H]2C)CC[C@H]([C@]2(C)CC[C@]3(C[C@H](O)[C@@H](C)[C@@H]([C@@H](C)[C@@H](OC)[C@H](C)C(=O)O)O3)O2)O1", "note": "[monensin]", "values": [{"measurement": "LC3-ATG16L1 overlap, as a measure of LAP-like noncanonical autophagy", "setting": "[1]", "value": "increase"}]}
{"molecule": "C/C=C(/C)C(=O)O[C@H]1C(C)=C2[C@H]([C@@H]1OC(=O)CCCCCCC)[C@@](C)(OC(C)=O)C[C@H](OC(=O)CCC)[C@@]1(O)[C@H]2OC(=O)[C@@]1(C)O", "note": "[TG, thapsigargin]", "values": [{"measurement": "Effect of TG on HyPAS formation", "setting": "HyPAS formation; STX17KO HeLa cells", "value": "abrogated"}, {"measurement": "HyPAS formation", "setting": "HyPAS formation; WT HeLa cells, basal conditions, thapsigargin treatment", "value": "increased"}]}
{"molecule": "CCN(CC)CCCC(C)Nc1ccnc2cc(Cl)ccc12", "note": "(stereo not shown) [CQ, chloroquine]", "values": [{"measurement": "HyPAS formation in vitro (IvitHC)", "setting": "[2]", "value": "inhibited"}, {"measurement": "STX17 and SERCA2 interactions (co-IP)", "setting": "[3]", "value": "did not inhibit"}, {"measurement": "STX17 and E-SYT2 interactions (co-IP)", "setting": "[4]", "value": "inhibited"}]}
